{
  "source": "patent US20050053612A1",
  "about": "“Nucleotide regulation of immune responses” (priority 2003, published 2005)",
  "key": {"[1]": {"system": "XS106 cells", "test": "Cytokine content of supernatants by ELISA", "assay_type": "cell-based, mouse"}, "[2]": {"system": "XS 106A cell"}, "[3]": {"system": "XS106 cells", "test": "FACS analysis of I-A, CD80 and CD86 expression", "assay_type": "cell-based, mouse", "conditions": "for effect on ATPγS-enhanced CD80 expression: pre-incubated with 300 μM oATP for 2 hours, then GM-CSF/LPS and ATPγS"}, "[4]": {"system": "BALB/c mice", "test": "Contact hypersensitivity (CHS) assay, DNFB, ear swelling", "conditions": "mouse, in vivo"}, "[5]": {"system": "group A streptococcus (GAS)", "design": "species or system Streptococcus pyogenes", "conditions": "in vivo"}, "[6]": {"system": "CAF1 mice", "test": "Tumor vaccine: delayed-type hypersensitivity to tumor-associated antigens (TAA), footpad swelling", "conditions": "mouse, in vivo"}, "[7]": {"system": "Langerhans cells", "test": "HDK-1 assay: antigen presentation by Langerhans cells, IFNγ by ELISA", "assay_type": "cell-based, BALB/c mice"}, "[8]": {"system": "XS106"}},
  "note": "“Also recorded” adds a separate entry of the source.",
  "data": [
    {"smiles": "Nc1ncnc2c1ncn2[C@@H]1O[C@H](COP(=O)(O)OP(=O)(O)OP(=O)(O)O)[C@@H](O)[C@H]1O", "note": "[ATP]", "values": [
      {"measurement": "secretion of IL-1β", "setting": "[1]; ATP, significant at 10^−3 M and 10^−4 M, NS at 10^−5 M and 10^−6 M", "value": "greatly augmented secretion"},
      {"measurement": "cell viability", "setting": "[2]", "value": "No effect on viability"}
    ]},
    {"smiles": "Nc1ncnc2c1ncn2[C@@H](C=O)O[C@@H](C=O)COP(=O)(O)OP(=O)(O)OP(=O)(O)O", "note": "[oxidized ATP, reference compound]", "values": [
      {"measurement": "effect on ATPγS-enhanced CD80 expression", "setting": "[3]", "value": "inhibits the effect of ATPγS on CD80 expression"},
      {"measurement": "effect on ATPγS-enhanced CD80 expression", "setting": "[3]; listed as oATP", "value": "inhibited"},
      {"measurement": "effect on ATPγS-induced IL-1β secretion", "setting": "[1]; data not shown", "value": "significantly inhibited"}
    ]},
    {"smiles": "Nc1ncnc2c1ncn2[C@@H]1O[C@H](COP(=O)(O)OP(=O)(O)OP(O)(O)=S)[C@@H](O)[C@H]1O", "note": "[ATPγS]", "values": [
      {"measurement": "ear swelling (contact hypersensitivity response)", "setting": "[4]", "value": "significantly augmented; also recorded: greatest ear swelling; also recorded: increased response upon challenge"},
      {"measurement": "ear swelling (contact hypersensitivity response), ATPγS injected at a site distant from that of immunization", "setting": "[4]", "value": "no effect on the response"},
      {"measurement": "ear swelling, ATPγS only (not immunized with DNFB)", "setting": "[4]", "value": "least ear swelling"},
      {"measurement": "lesion size vs mice immunized with killed GAS alone", "setting": "[5]", "value": "much smaller lesions"},
      {"measurement": "mean areas of the lesions", "setting": "[5]", "value": "2.80±1.11", "unit": "mm^2"},
      {"measurement": "delayed-type hypersensitivity (DTH) response, footpad swelling", "setting": "[6]", "value": "significantly enhanced; also recorded: significantly greater DTH response"},
      {"measurement": "IFNγ release by HDK-1 cells (presentation of KLH by LCs)", "setting": "[7]", "value": "dose-dependent increase; also recorded: augmented the ability of LCs to present KLH"},
      {"measurement": "IFNγ, LCs incubated with ATPγS in the absence of KLH", "setting": "[7]", "value": "only background levels; also recorded: did not significantly change the background response"},
      {"measurement": "concentration at which the IFNγ response begins to decrease", "setting": "[7]", "value": "greater than 10^−6 molar"},
      {"measurement": "expression of CD80", "setting": "[3]", "value": "enhanced; also recorded: enhances expression"},
      {"measurement": "expression of CD86", "setting": "[3]", "value": "enhanced; also recorded: enhances expression"},
      {"measurement": "expression of I-A", "setting": "[3]", "value": "enhanced; also recorded: enhances expression"},
      {"measurement": "release of IL-1β", "setting": "[1]", "value": "significantly increased; also recorded: significant increase"},
      {"measurement": "release of IL-10", "setting": "[1]", "value": "decreasing release; also recorded: decrease"},
      {"measurement": "release of IL-12", "setting": "[1]", "value": "significantly increased; also recorded: significant increase"},
      {"measurement": "concentrations that induce apoptosis", "setting": "[8]", "value": "greater than 10^−6 molar"}
    ]}
  ]
}
